Assay results published in ChEMBL document CHEMBL1149443, “Synthesis of the novel series of bispyridinium compounds bearing (E)-but-2-ene linker and evaluation of their reactivation activity against chlorpyrifos-inhibited acetylcholinesterase” (Bioorg Med Chem Lett, 2006).

Molecular target: T1, Acetylcholinesterase (Rattus norvegicus) (UniProt P37136)
T1 sequence (whole entry): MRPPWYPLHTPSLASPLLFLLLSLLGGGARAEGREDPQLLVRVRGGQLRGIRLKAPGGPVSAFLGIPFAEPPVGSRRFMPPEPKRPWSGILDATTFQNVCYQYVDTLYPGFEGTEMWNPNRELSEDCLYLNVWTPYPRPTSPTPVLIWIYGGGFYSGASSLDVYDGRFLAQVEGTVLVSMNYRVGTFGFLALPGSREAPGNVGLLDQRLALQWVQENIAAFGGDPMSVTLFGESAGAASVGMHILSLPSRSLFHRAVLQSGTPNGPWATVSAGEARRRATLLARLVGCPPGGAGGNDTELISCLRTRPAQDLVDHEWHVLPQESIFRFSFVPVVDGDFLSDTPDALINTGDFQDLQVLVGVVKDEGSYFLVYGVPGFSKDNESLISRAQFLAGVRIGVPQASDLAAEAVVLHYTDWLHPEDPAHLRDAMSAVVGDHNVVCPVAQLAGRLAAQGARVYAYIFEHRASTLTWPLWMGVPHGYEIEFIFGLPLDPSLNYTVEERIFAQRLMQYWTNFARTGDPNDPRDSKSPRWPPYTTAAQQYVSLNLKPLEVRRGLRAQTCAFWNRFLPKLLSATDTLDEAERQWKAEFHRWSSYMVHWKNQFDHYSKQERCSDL
Test: Inhibitory activity against AChE from rat brain homogenate
Type: functional
Conditions: concentration not given here

## CCOP(=S)(OCC)Oc1nc(Cl)c(Cl)cc1Cl
  inhibition: 95%
